Experimental data reported in US20250326799A1, “AGENTS INDUCING VASCULARISATION” (Coegin Pharma AB, priority 2022, published 2025).
Entries after “also recorded” stand apart in the source; their conditions may differ.

Columns and labels:
Type in all cases: cell-based
[1] = tested on: human coronary artery smooth muscle cells (HCASMCs); experiment: sFasL-induced apoptosis, caspase 3 and 7 activation, HCASMCs; details: 10 nM, 100 nM, 1000 nM
Procedure: (§1) Human Umbilical Vein Endothelial Cells (HUVECs) and Human Coronary Artery Smooth Muscle Cells (HCASMCs) were purchased from Thermo Fisher. Cells were grown in Medium 200 containing 2% Low Serum Growth Supplement and Medium 231 with 5% Smooth Muscle Growth Supplement (Invitrogen, CA, USA) respectively with addition of Antibiotic-Antimycotic (1%, Invitrogen, CA, USA). Test polypeptide and sFasL (PeproTech, NJ, USA) were dissolved in the respective complete medium.
(§2) Caspase-Glo 3/7 Assay (Promega, USA) was performed to evaluate cell apoptosis. HUVECs and HCASMCs were seeded into 96-well plates at a density of 3-5×10^3 per well. For additional NRP-1 on cells transfected siRNA, NRP-1 was added 24 hours after transfection and the mixture of Caspase-Glo 3/7 was added 48 hours after polypeptide stimulations. Subsequent steps were performed as manufacturer's instructions using the FOL26 and FOL56 as test compounds. Data were read by Wallac 1420 Victor 2 (Perkin Elmer, USA).

[2] = tested on: Human umbilical cord endothelial cells (HUVECs); experiment: sFasL-induced apoptosis, caspase 3 and 7 activation, HUVECs; details: 10 nM, 100 nM, 1000 nM
Procedure: as §1, §2

[3] = tested on: human coronary smooth muscle cells (HCASMCs); experiment: In vitro scratch wound closure, HCASMCs; details: for wound closure (scratch wound assay): HCASMCs
Procedure: (§3) The effect of FOL-026 peptide treatment on smooth muscle cell proliferation (FIG. 25a) and apoptosis (FIG. 25c) induced with low-oxygen condition was evaluated with the uptake of BrdU (n=10 per group) and active caspase-3/-7 (n=6-8 per group) separately. H2O2 measurement (FIG. 25b) of smooth muscle cells pre-incubated with FOL-26 peptides after 50 ug/ml oxidized Low-density Lipoprotein (oxLDL) stimulation for 2 hours (n=6-7 per group). Representative images of scratch wound assay in vitro are shown (FIG. 26a) and the ability of wound healing (FIG. 26b) in human coronary smooth muscle cells (HCASMCs) treated with FOL-026 peptides was measured by image J software (n=10 per group). Scale bar=150 um. Data are presented as means±SEM and acquired from 3 to 4 independent replicate tests. *P<0.05, **P<0.01, ***P<0.001, ****P<0.0001 by one-way ANOVA and Dunnett's post-hoc test.
qRT-PCR analysis of NRP-1 mRNA expression in HCASMCs with small interfering RNA transfection for 48 hours (n=4) (FIG. 27a). The assessment of BrdU incorporation (FIG. 27b, n=10-11) and caspase-3/-7 activation (FIG. 27c, n=3-10) in siRNA-NC/siNRP-1-transfected […] treated with indicated concentration of FOL-026 peptide. The wound closure rate (FIG. 28b) of HCASMCs in siRNA-NC and siNRP-1 group stimulated with increasing concentration of FOL-026 peptide was quantified by image J software (n=9-12 per group). Scale bar=150 um. Data are presented as means±SEM and acquired from 3 to 4 independent replicate tests. *P<0.05, **P<0.01, ***P<0.001, ****P<0.0001 by Student's t test for A, two-way ANOVA followed with Sidak's and Dunnett's multiple comparisons test.
The effect of FOL-005 peptide on smooth muscle cell proliferation (FIG. 30a) was determined with BrdU incorporation in peptide-treated human coronary smooth muscle cells (HCASMCs). Scratch wound assay (FIG. 30b) of HCASMCs incubated with FOL-005 peptides for 5 hours was measured by image J software (n=10-12 per group) and representative pictures of smooth muscle cell migration into an in vitro scratch injury were shown (FIG. 30c). Scale bar=150 um.

[4] = tested on: Human umbilical cord endothelial cells (HUVECs); experiment: Gene expression by PCR in endothelial cells
[5] = tested on: human coronary smooth muscle cells (HCASMCs); experiment: H2O2 measurement after oxLDL, smooth muscle cells; details: smooth muscle cells pre-incubated with peptide; 50 ug/ml oxLDL for 2 hours
Procedure: as §3

[6] = tested on: Human coronary artery smooth cells (HCASMCs); experiment: Gene expression by PCR in arterial smooth muscle cells
Procedure: Cells on 6-well plates were washed with cold DPBS (Gibco, USA) and homogenized in Trizol reagent (Invitrogen, CA, USA). Total RNA was extracted using PureLink RNA Mini Kit (Invitrogen, CA, USA), followed by nucleic acid quantification with NanoDrop 2000c (Thermo Fisher Scientific, USA). To determine mRNA expression of target genes, real-time qPCR was performed using by KAPA SYBR FAST One-Step qRT-PCR Master Mix Kit (KAPA Biosystems, USA) on LightCycler480 system (Roche, Mannheim, Germany). All primers were purchased from miScript Primer Assays (Qiagen, Valencia, CA) and GAPDH mRNA expression of each sample was used for normalization. Cells on 6-well plates were washed with cold DPBS and lysed with the mixture of lysis buffer and protease inhibitors on ice, then centrifuged at 15,000 g for 20 min at 4° C. Supernatant was performed to measure the protein concentration using BCA Protein Assay Kit (Thermo Fisher Scientific, USA). Protein sample was loaded onto SDS-PAGE gels and separated with electrophoresis, followed by transferred to PVDF membranes (Millipore, USA). Membranes were blocked with 5% nonfat milk. Primary antibodies (Abcam, UK) and secondary antibodies were performed to incubate with membranes at 4° C. overnight and at room temperature for 1 hour respectively.

**Q.** Which results are given for AEIDSIELSYGIK [FOL56]?
**A.** sFasL-induced apoptosis (caspase 3 and 7) [1]: reduced sFasL-induced apoptosis; also recorded: capable of inhibiting, or trended towards inhibiting apoptosis; sFasL-induced apoptosis (caspase 3 and 7) [2]: reduced sFasL-induced apoptosis; also recorded: capable of inhibiting, or trended towards inhibiting apoptosis

**Q.** VDTYDGDISVVYGLR [FOL-005] was tested. Which “wound closure (scratch wound assay)” value [3] did it give?
**A.** accelerate HCASMC wound closure

**Q.** With VDTYDGGISVVYGLR [FOL-026] as the sequence, how does the VEGFR-2 gene expression ([4]; 10 nM) read?
**A.** reduced

**Q.** And the TNF-α gene expression ([4]; 10 nM and 100 nM)?
**A.** reduced

**Q.** And the IL-6 gene expression ([4]; 10 nM, 100 nM, 1000 nM tested)?
**A.** no effect

**Q.** What about the MMP3 gene expression ([4]; 10 nM, 100 nM, 1000 nM tested) of the same sequence?
**A.** no effect

**Q.** And the VEGF-A gene expression ([4]; 10 nM, 100 nM, 1000 nM tested)?
**A.** no effect

**Q.** And the c-Met gene expression ([4]; 10 nM, 100 nM, 1000 nM tested)?
**A.** reducing

**Q.** And the NRP-1 gene expression ([4]; 100 nM and 1000 nM)?
**A.** inducing

**Q.** What about the MMP2 gene expression ([4]; 200 nM and 1000 nM) of the same sequence?
**A.** induced

**Q.** And the VEGFR-2 gene expression ([4]; 1000 nM)?
**A.** induced

**Q.** And the NRP-1 gene expression ([4]; lowest dose (10 nM))?
**A.** reducing

**Q.** What about the “ROS formation (H2O2 measurement)” value [5] of the same sequence?
**A.** reduces ROS formation

**Q.** What about the c-MET gene expression ([6]; 10 nM and 1000 nM) of the same sequence?
**A.** reduced

**Q.** And the MMP2 gene expression ([6]; 10, 100, and 1000 nM)?
**A.** induced

**Q.** And the NRP-1 gene expression ([6]; 10, 100, and 1000 nM)?
**A.** reduced

**Q.** What about the VEGF-A gene expression ([6]; 10, 100, and 1000 nM) of the same sequence?
**A.** induced

**Q.** And the IL-6 gene expression ([6]; 100 and 1000 nM)?
**A.** induced

**Q.** What about the MMP3 gene expression ([6]; 100 and 1000 nM) of the same sequence?
**A.** induced

**Q.** What about the TNF-α gene expression ([6]; 100 and 1000 nM) of the same sequence?
**A.** induced

**Q.** What about the “sFasL-induced apoptosis (caspase 3 and 7)” value ([1]; listed as FOL26) of the same sequence?
**A.** reduced sFasL-induced apoptosis; also recorded: capable of reversing the sFasL-induced apoptosis

**Q.** What about the “sFasL-induced apoptosis (caspase 3 and 7)” value ([2]; listed as FOL26) of the same sequence?
**A.** reduced sFasL-induced apoptosis; also recorded: capable of reversing the sFasL-induced apoptosis

**Q.** And the “wound closure (scratch wound assay)” value [3]?
**A.** accelerates wound closure

**Q.** What about the “wound closure after NRP-1 knock-down (Example 11)” value ([3]; siRNA-NC/siNRP-1-transfected cells, printed as HUVECs, increasing concentration, 5 hours) of the same sequence?
**A.** positive effect on wound closure
